In US9034846B2, “Use of cyclodextrin for treatment and prevention of bronchial inflammatory diseases” (UNIVERSITE DE LIEGE, priority 2004, dated 2015):
Blank lines part the entries; values can stand above or below the compound they belong to.

Tests used:
IL-13 = IL-13 ELISA in BAL and lung protein extracts, OVA mouse model; format: in vivo
Method: (§1) In order to study modulation of airway inflammation, males BALB/c mice of 6 to 8 weeks old were sensitized by intraperitoneal injection of 10 μg ovalbumin (OVA) (Sigma Aldrich, Schnelldorf, Germany) emulsified in aluminum hydroxyde (AlumInject; Perbio, Erembodegem, Belgium) on days 1 and 8. Mice were subsequently exposed to allergens by daily inhalation of an aerosol of OVA 1%, for 30 minutes, generated by ultrasonic nebulizer (Devilbiss 2000), from day 21 to 27. Mice were subjected to inhalation of β-CD, HP-β-CD HP 1, 7.5, 50 mM and HP-β-CD 50 mM 30 minutes before OVA inhalation. Mice were sacrificed performed on day 28 as previously reported by Cataldo and al in Am. J. Pathol 2002; 161(2):491-498.
The left lung was crushed using a Mikro-Dismembrator (Braun Biotech International, Gmbh Melsungen, Germany). For proteins extraction, the crushed lung tissue was incubated overnight at 4° C. in a solution containing 2M urea, 1M NaCl and 50 mM Tris (pH 7.5) and subsequently centrifuged 15 minutes at 16.000×g. The supernatant was stored at −80° C.
Eotaxin and IL-13 levels were assessed using commercial ELISAs (R&D systems, Abingdon, UK). Eotaxin was measured by incubation in a wheel coated with a primary antibody specifically dedicated to the recognition of the protein and after rinsing, a second antibody against eotaxin, coupled with horse radish peroxydase was used to quantify the amounts of eotaxin in the solution
IL-13 was measured by incubation in a wheel coated with a primary antibody specifically dedicated to the recognition of the protein and after rinsing, a second antibody against IL-13, coupled with horse radish peroxydase was used to quantify the amounts of […] in the solution.

OVA exposed mice [1] = assay: Bronchial responsiveness to methacholine (Penh, barometric plethysmograph); format: in vivo, mouse; conditions: FIG. 10
Method: as §1, with “Mice were subjected to inhalation of β-CD, HP-β-CD HP 1, 7.5, 50 mM and HP-β-CD 50 mM 30 minutes before OVA inhalation.” left out
Twenty-four hours after the last allergen exposure, the bronchial hyper responsiveness was determined by measuring the Penh (Enhanced Pause) using a barometric plethysmograph (Emka technologies, Paris) as proposed by Hamelmann, E., et al., Am. J. Respir. Crit. Care Med. 156 (1997) 766-775). The Penh was measured at baseline and […] after the inhalation of increasing doses (25, 50, 75 and 100 mM) of methacholine (Mch).

OVA exposed mice [2] = assay: Bronchoalveolar lavage differential cell counts, OVA mouse model of asthma; format: in vivo; conditions: for Eosinophils (%) in BAL / Epithelial cells (%) in BAL / Lymphocytes (%) in BAL / Macrophages (%) in BAL / Neutrophils (%) in BAL / Total cells (10^4/ml) in BAL: Table 2
Method: as §1
Immediately after assessment of airway responsiveness, and 24 hours after the last allergen exposure.
(§2) Mices were sacrificed and a bronchoalveolar lavage was performed using 4×1 ml PBS-EDTA 0.05 mM (Calbiochem, Darmstadt, Germany) as previously described by Cataldo D D, Tournoy K G, Vermaelen K et al. in Am J Pathol 2002; 161(2):491-498. Cells were recovered by gentle manual aspiration. After centrifugation of bronchoalveolar fluid (BALF) (1200 rpm for 10 minutes, at 4° C.), the supernatant was frozen at −80° C. for protein assessment and the cell pellet was resuspended in 1 ml PBS-EDTA 0.05 mM. The differential cell counts were performed on cytocentrifuged preparations (Cytospin) after staining with Diff-Quick (Dade, Belgium).

OVA exposed mice [3] = assay: Peribronchial inflammation score by histology, OVA mouse model; format: in vivo
Method: as §1, with “Mice were subjected to inhalation of β-CD, HP-β-CD HP 1, 7.5, 50 mM and HP-β-CD 50 mM 30 minutes before OVA inhalation.” left out
(§3) After BAL, the thorax was opened and the left main bronchus was clamped. The left lung was excised and frozen immediately at −80° C. for protein and mRNA extraction. The right lung was infused with 4 ml paraformaldehyde 4%, embedded in paraffin and used for histology. Sections of 5 μm thickness were cut off from paraffin and were stained with haematoxylin-eosin. The extent of peribronchial inflammation was estimated by a score calculated by quantification of peribronchial inflammatory cells, as previously described by Cataldo D D, Tournoy K G, Vermaelen K et al. in Am J Pathol 2002; 161(2):491-498. A value of 0 was adjudged when no inflammation was detectable, a value of 1 when there was occasionally inflammatory cells, a value of 2 when most bronchi were surrounded by a thin layer (1 to 5 cells) of inflammatory cells and a value of 3 when most bronchi were surrounded by a thick layer (>5 cells) of inflammatory cells. Since 5-7 randomly selected tissue sections per mouse were scored, inflammation scores are expressed as a mean value and can be compared between groups. After Congo Red staining, the eosinophilic infiltration in the airway walls was quantified by manual count and reported to the perimeter of epithelial basement membrane defining an eosinophilic inflammatory score.

mice = assay: BAL differential cell counts after exposure to inhaled CRYSMEB (Table 1); format: in vivo, mouse
Method: as §2, with “Belgium). […]” for “Belgium).”

OVA exposed mice [4] = assay: Peribronchial eosinophil infiltration (Congo Red), OVA mouse model; format: in vivo; conditions: after allergen exposure; FIG. 3
Method: as §1, §3

[5] = exposure to aerosolized CRYSMEB 30 min/day during 7 days
[6] = reference therapy, concentration not given

cellular composition of the bronchoalveolar lavage (mice; [5]): not significantly altered
eosinophil and neutrophil counts in BAL (mice; [5]): no differences
Eosinophils (%) in BAL (mice; inhaled 20 mM): 0.0375 ± 0.0375%
Epithelial cells (%) in BAL (mice; inhaled 20 mM): 29.9 ± 5.909%
Lymphocytes (%) in BAL (mice; inhaled 20 mM): 0.425 ± 0.1485%
Macrophages (%) in BAL (mice; inhaled 20 mM): 69.5 ± 5.956%
Neutrophils (%) in BAL (mice; inhaled 20 mM): 0.0375 ± 0.1061%
Eosinophils (%) in BAL (mice; inhaled 50 mM): 0.1125 ± 0.0789%
Epithelial cells (%) in BAL (mice; inhaled 50 mM): 36.1375 ± 4.52%
Lymphocytes (%) in BAL (mice; inhaled 50 mM): 0.275 ± 0.1161%
Macrophages (%) in BAL (mice; inhaled 50 mM): 63.1625 ± 4.695%
Neutrophils (%) in BAL (mice; inhaled 50 mM): 0.2 ± 0.3505%
Eosinophils (%) in BAL (mice; inhaled 75 mM): 0.0375 ± 0.0375%
Epithelial cells (%) in BAL (mice; inhaled 75 mM): 30.8875 ± 1.349%
Lymphocytes (%) in BAL (mice; inhaled 75 mM): 0.075 ± 0.0491%
Macrophages (%) in BAL (mice; inhaled 75 mM): 68.9 ± 1.334%
Neutrophils (%) in BAL (mice; inhaled 75 mM): 0.0375 ± 0.1061%
Compound: 2-O-methyl βcyclodextrin [CRYSMEB]
levels of IL-13 in whole lung protein extracts (IL-13; FIG. 11): significantly decreased
methacholine-induced Penh increase (OVA exposed mice [1]; 10 mM inhalation): reduced
responsiveness to methacholine (OVA exposed mice [1]; after allergen exposure, extent comparable to fluticasone): significantly reduced
Bronchoalveolar lavage eosinophilia (OVA exposed mice [2]; Example 2, treated groups vs placebo): significantly decreased
Eosinophils (%) in BAL (OVA exposed mice [2]; 10 mM): 8.84 ± 2.946 %
Epithelial cells (%) in BAL (OVA exposed mice [2]; 10 mM): 36.83 ± 5.644%
Lymphocytes (%) in BAL (OVA exposed mice [2]; 10 mM): 0.214 ± 0.1079%
Macrophages (%) in BAL (OVA exposed mice [2]; 10 mM): 52.714 ± 6.49%
Neutrophils (%) in BAL (OVA exposed mice [2]; 10 mM): 1.26 ± 0.4587%
Total cells (10^4/ml) in BAL (OVA exposed mice [2]; 10 mM): 131.93 ± 33.637 10^4/ml
peribronchial inflammation score (OVA exposed mice [3]; 20 mM, compared to placebo, FIG. 9A): decreased inflammation score

Compound: C[C@@H]1C[C@H]2[C@@H]3C[C@H](F)C4=CC(=O)C=C[C@]4(C)[C@@]3(F)[C@@H](O)C[C@]2(C)[C@@]1(O)C(=O)SCF [Fluticasone, reference compound]
Eosinophils (%) in BAL (OVA exposed mice [2]; [6]): 32.92 ± 7.306 %
Epithelial cells (%) in BAL (OVA exposed mice [2]; [6]): 22.85 ± 5.343%
Lymphocytes (%) in BAL (OVA exposed mice [2]; [6]): 1.68 ± 0.7115%
Macrophages (%) in BAL (OVA exposed mice [2]; [6]): 40.52 ± 3.122%
Neutrophils (%) in BAL (OVA exposed mice [2]; [6]): 1.85 ± 1.093%
Total cells (10^4/ml) in BAL (OVA exposed mice [2]; [6]): 75.92 ± 11.922 10^4/ml

Compound: OC[C@H]1O[C@@H]2O[C@H]3[C@H](O)[C@@H](O)[C@@H](O[C@H]4[C@H](O)[C@@H](O)[C@@H](O[C@H]5[C@H](O)[C@@H](O)[C@@H](O[C@H]6[C@H](O)[C@@H](O)[C@@H](O[C@H]7[C@H](O)[C@@H](O)[C@@H](O[C@H]8[C@H](O)[C@@H](O)[C@@H](O[C@H]1[C@H](O)[C@H]2O)O[C@@H]8CO)O[C@@H]7CO)O[C@@H]6CO)O[C@@H]5CO)O[C@@H]4CO)O[C@@H]3CO [β-CD, β-cyclodextrin]
IL-13 levels in BAL (IL-13; FIG. 7b): increased
peribronchial eosinophil infiltration (OVA exposed mice [4]): decrease reached statistical significance
number of eosinophils in BAL (OVA exposed mice [2]; after allergen exposure, concentration not given, FIG. 1): tendency to increase
peribronchial inflammation score (OVA exposed mice [3]; concentration not given, FIG. 2): did not reduce
